# US10285994B2, “Method of preventing or treating osteoporosis by neddylation inhibitor” (Chang Gung University, priority 2017, dated 2019)
# Assays:
# [1] = tested on: primary mouse bone marrow-derived macrophages (BMMs); assay: Viability of BMMs (WST / MTT assay); format: cell-based; settings: doses that inhibit osteoclast differentiation, FIG. 1D
# Experimental: FIGS. 1A-1D are data collected from primary mouse bone marrow-derived macrophages (BMMs) respectively incubated in the medium containing the soluble recombinant RANKL (sRANKL, 50 ng/ml), macrophage colony-stimulating factor (M-CSF, 40 ng/ml) and specified concentrations of MLN4924 for 7 days according to example 1.1 of the present disclosure. FIG. 1A: the photographs of TRAP staining depicting the differentiation of osteoclasts from BMMs. FIG. 1B: after the differentiation of osteoclasts in Corning Osteo Surface (a synthetic 3-dimensional structure that mimics in vivo bone for in vitro bone cell assays), the cells were removed, and the resorbed areas for confirming osteoclast activity were analyzed by 1% toluidine blue staining. FIG. 1C: the culture medium is subject to Biovision Cathepsin K Activity Fluorometric Assay Kit for the analysis of cathepsin K activity. FIG. 1D: the effect of effective doses of MLN4924 on the viability of BMMs is evaluated by MTT assay. Scale bar represents 100 μm. Data are expressed as mean±SD where *p<0.05; **p<0.01. Next, the WST assay was used to determine whether the suppressed osteoclastogenesis by MLN4924 was caused by cytotoxicity.
# RAW264.7 cells [2] = assay: Pit assay on Corning Osteo Surface, RAW264.7-derived osteoclasts; format: cell-based, mouse; settings: sRANKL-activated RAW264.7 cells, 7 days, FIG. 2B
# Experimental: (§1) FIGS. 2A-2D are data collected from RAW264.7 cells respectively incubated in the medium containing sRANKL (50 ng/ml) and specified concentrations of MLN4924 for 7 days according to example 1.2 of the present disclosure. FIG. 2A: the photographs of TRAP staining depicting the differentiation of osteoclasts from RAW264.7 cells. FIG. 2B: after the differentiation of osteoclasts in Corning Osteo Surface, the cells were removed, and the resorbed areas for confirming osteoclast activity were analyzed by 1% toluidine blue staining. FIG. 2C: the culture medium is subject to Biovision Cathepsin K Activity Fluorometric Assay Kit for the analysis of cathepsin K activity. FIG. 2D: the effect of effective doses of MLN4924 on the viability of RAW264.7 cells is evaluated by MTT assay. Scale bar represents 100 μm. Data are expressed as mean±SD where *p<0.05.
# The pre-osteoclasts and RAW264.7 cells were seeded into Corning Osteo Surface Assay 96-wells plate (Corning, Kennebunk, Me.). Twenty-four hours later, the cells were treated with sRANKL (50 ng/ml) and specified concentrations of MLN4924 for 7 days. The cells were then harvested so as to evaluate the cathepsin K activity by use of Biovision Cathepsin K Activity Fluorometric Assay Kit (Biovision, Milpitas, Calif.). The Corning Osteo surface was stained with 1% toluidine blue for 24 hours and washed with deionized water twice. […]
# RAW264.7 cells [3] = format: cell-based, mouse
# Experimental: as §1
# In addition to BMMs, the effect of MLN4924 on macrophage cell line RAW264.7 cells was also investigated. The RAW264.7 cells were cultured in the medium containing sRANKL and MLN4924 for 7 days, then subjected to osteoclast formation evaluation by TRAP staining.
# ERK (pERK) = assay: Western blot, sRANKL-induced ERK phosphorylation in RAW264.7 cells; format: cell-based, mouse; settings: RAW264.7, 30 min pre-treatment, sRANKL 50 ng/ml, FIG. 3A-3B
# Experimental: (§2) FIGS. 3A-3D are data collected from Western blot analysis that respectively depict the expression of specified protein extracted from the RAW264.7 cells, which are pre-treated with specified concentrations of MLN4924 for 30 minutes followed by the stimulation of sRANKL (50 ng/ml) according to example 2 of the present disclosure. FIG. 3A: the time course effect of MLN4924 on the phosphorylations of ERK (pERK), P38 (pP38) and JNK (pJNK). FIG. 3B: the dose effect of MLN4924 on the phosphorylations of ERK (pERK), P38 (pP38) and JNK (pJNK). FIG. 3C: the time course effect of MLN4924 on the expression of NFATc-1. FIG. 3D: the dose effect of MLN4924 on the expression of NFATc-1. Mock: untreated control; R: sRANKL; M: MLN4924.
# (§3) The RAW264.7 cells were starved with serum-free medium for six hours and then treated with the specified treatments. At indicated time points, the cells were washed with cold phosphate-buffered saline (PBS) and lysed in RIPA buffer containing complete protease inhibitor cocktail (Roche). The cell lysates were separated by SDS-PAGE followed by Western blotting with the indicated antibodies, including NEDD8, APPBP1, UBA3.
# (§4) Specifically, the inhibitory effect increased with an increase in the MLN4924 concentration (FIG. 3B).
# P38 (pP38) = assay: Western blot, sRANKL-induced P38 phosphorylation in RAW264.7 cells; format: cell-based, mouse; settings: RAW264.7, 30 min pre-treatment, sRANKL 50 ng/ml, FIG. 3A-3B
# Experimental: as §2, §3, §4
smiles,measurement,setting,value
"NS(=O)(=O)OC[C@@H]1C[C@@H](n2ccc3c(N[C@H]4CCc5ccccc54)ncnc32)C[C@@H]1O [MLN4924, (1S,2S,4R)-4-(4-((1S)-2,3-Dihydro-1H-inden-1-ylamino)-7H-pyrrolo(2,3-d)pyrimidin-7-yl)-2-hydroxycyclopentyl) methyl sulphamate]",cytotoxicity / viability of BMMs,[1],no cytotoxic effects at doses that effectively inhibited osteoclast differentiation
same,bone matrix resorption of osteoclasts,RAW264.7 cells [2],significantly inhibited
same,cell viability of RAW264.7 cells,RAW264.7 cells [3],did not affect cell viability
same,sRANKL-upregulated phosphorylation of ERK (pERK),ERK (pERK),inhibited
same,sRANKL-upregulated phosphorylation of P38 (pP38),P38 (pP38),inhibited
